From US4272524A, “N-Acyl-muramyl peptide derivatives having anti-infectious infections properties” (priority 1976, dated 1981)

Test system: Klebsiella pneumoniae
Assay: Response of mice to an intramuscular infection by 10^4 Klebsiella pneumoniae (Table 2)
Format: in vivo
[1] = i.v. hour + 1 after inoculation, 100 μg per animal
[2] = per os day-1, 2,000 μg per animal

Molecule | Survival (%) D + 3 (i.v. day-1, 100 μg per animal) | Survival (%) D + 5 (i.v. day-1, 100 μg per animal) | Survival (%) D + 8 (i.v. day-1, 100 μg per animal) | Survival (%) D + 3 [1] | Survival (%) D + 5 [1] | Survival (%) D + 8 [1] | Survival (%) D + 3 [2] | Survival (%) D + 5 [2] | Survival (%) D + 8 [2] | Survival (%) D + 3 (s.c. day-1, 100 μg per animal) | Survival (%) D + 5 (s.c. day-1, 100 μg per animal) | Survival (%) D + 8 (s.c. day-1, 100 μg per animal)
CC(=O)N[C@H]1C(O)O[C@H](CO)[C@@H](O)[C@@H]1O[C@H](C)C(=O)N[C@@H](C)C(=O)N[C@H](CCC(N)=O)C(=O)O (stereo partly drawn) [Ac--Mur--L-Ala--D-Glu--γ(NH2)] | 92% | 79% | 67% | – | – | – | – | – | – | – | – | –
Ac--Mur--L-Ala--D-Glu-- γ(L-Ala)--NH2 [Ac--Mur--L-Ala--D-Glu--(L-Ala)--NH2] | 100% | 94% | 63% | – | – | – | – | – | – | – | – | –
Ac--Mur--L-Ala--D-Glu-- γ(L-Lys)--NH2 [Ac--Mur--L-Ala--D-Glu--(L-Lys)--NH2] | 100% | 93% | 73% | 91% | 78% | 66% | 81% | 81% | 56% | 100% | 81% | 75%
Ac--Mur--L-Ala--D-Glu-- γ(L-Lys--L-Ala)--NH2 [Ac--Mur--L-Ala--D-Glu--(L-Lys--L-Ala)] | 96% | 79% | 71% | – | – | – | – | – | – | – | – | –
